# Data published in patent publication US20250109384A1, “A CELLULAR COMPOSITE” (ALCYOMICS LIMITED, priority 2022, published 2025).
# Entries after “also recorded” stand apart in the source; their conditions may differ.
# Key:
# [1] = test system: Y201 models and OA models; assay: Aggrecan / collagen II immunofluorescence (IHC) of models and OA models with coatings or media modification; type: cell-based, human
# Protocol: (§1) To improve the overall quality of the model and encourage aggrecan deposition a range of separate coatings were applied to the 3D scaffold. The applied coatings were selected from human collagen type II, human hyaluronan and human aggrecan to empty 3D scaffolds. Specifically, COL-II was solubilised to 1 mg/mL in 0.5M acetic acid. Stock was diluted 1:500 in PBS and 10 uL layered onto each scaffold. Scaffolds were left to air dry overnight at 2-8 degrees. The next day scaffolds there gently washed in PBS and were ready for use. Hyaluronan was reconstituted into a 1% w/v stock in sterile water. 10 uL was added to each scaffold and left to polymerise at 37 degrees for 1 hour. Following this incubation scaffolds were ready to use. Aggrecan was reconstituted in PBS to create a 100ug/mL stock solution. This stock was used neat, with 10 uL added to each scaffold. Scaffolds were incubated at 37 degrees for several hours prior to use.
# (§2) An independent modification was also made to the chondrogenic media. This involved the addition of the HAPLN1 link protein (SEQ ID NO: 1). Specifically, HAPLN1 stock solution was added to chondrogenic media at a working concentration of 100 ng/mL. The resulting medium composition (complete) is outlined in Table 1. L-Ascorbic acid-2-phosphate and HAPLN1 link protein have limited shelf life at 4° C. and so are added to aliquots of incomplete CDM (all components of Table 1 with the exception of L-Ascorbic acid-2-phosphate and HAPLN1 link protein) to create complete CDM on day 7. Preparation of HAPLN1 link protein (Cat #2608-HP RnD sytems) is as follows: • Unit concentration: 25 μg • Solvent: PBS • Reconstitution volume: 250 μl • Stock concentration: 100 μg/mL • Working concentration: 100 ng/mL • Use: 1:1000 dilution for working concentration. E.g. 50 μL of stock into 50 mL of media. • HAPLN1 is reportedly stable for 1 month at 4° C.
# (§3) The resulting models were stimulated with cytokines using previously established protocols to create OA models. Following cytokine stimulation, the resulting OA models were harvested and analysed for q-PCR, and immunofluorescent (IF). The supernatant was also harvested and analysed using ELISAs and FRET assays. All analyses were conducted in triplicate.
# [2] = test system: Y201 models and OA models; assay: ELISA of MMP13 and ADAMTS4 in supernatant of modified models and OA models; type: cell-based, human; conditions: OA models vs models; for MMP13 concentration in supernatant (ELISA): coating or supplement
# Protocol: as §1, §2, §3
# [3] = test system: Y201 OA models; assay: q-PCR of OA models with coated scaffolds or HAPLN1 modified chondrogenic media; type: cell-based, human; conditions: OA models (cytokine stimulated); for fold change of MMP13 gene expression: scaffold coating or media supplement
# Protocol: as §1, §2, §3
# [4] = at 4° C.; cited from earlier work
# [5] = models not stimulated with cytokines
# [6] = OA models (cytokine stimulated)
Molecule,"aggrecan staining [1, 5]",ADAMTS4 concentration in supernatant (ELISA) ([2]; coating),MMP13 concentration in supernatant (ELISA) [2],gene expression profile vs uncoated OA models ([3]; coated scaffolds),ADAMTS5 gene expression ([3]; coated scaffolds),"aggrecan staining [1, 6]",fold change of MMP13 gene expression [3] [fold],collagen II production (immunofluorescence) ([1]; MSCs differentiated to chondrocytes in presence of HAPLN1),stability [4] [month]
Hyaluronan,did not stain positively of aggrecan,increase in ADATS4 levels,decrease in the levels of MMP13,comparable,–,–,–,–,–
Collagen type II: human collagen type II applied as coating to the 3D scaffold,did not stain positively of aggrecan,–,decrease in the levels of MMP13,–,increase in expression of ADAMTS5,–,–,–,–
aggrecan: human aggrecan applied as coating to the 3D scaffold,did not stain for aggrecan,–,increased MMP13 levels,–,–,aggrecan was detected,~19,–,–
"HAPLN1: hyaluronan and proteoglycan link protein 1 (SEQ ID NO: 1), added to chondrogenic media at 100 ng/mL (protein, listed as Homo sapiens) MKSLLLLVLISICWADHLSDNYTLDHDRAIHIQAENGPHLLVEAEQAKVFSHRGGNVTLPCKFYRDPTAFGSGIHKIRIKWTKLTSDYLKEVDVFVSMGYHKKTYGGYQGRVFLKGGSDSDASLVITDLTLEDYGRYKCEVIEGLEDDTVVVALDLQGVVFPYFPRLGRYNLNFHEAQQACLDQDAVIASFDQLYDAWRGGLDWCNAGWLSDGSVQYPITKPREPCGGQNTVPGVRNYGFWDKDKSRYDVFCFTSNFNGRFYYLIHPTKLTYDEAVQACLNDGAQIAKVGQIFAAWKILGYDRCDAGWLADGSVRYPISRPRRRCSPTEAAVRFVGFPDKKHKLYGVYCFRAYN",did stain for aggrecan; also recorded: significant levels of ACAN protein,–,increased MMP13 levels,–,–,no staining of aggrecan,~6,does not have a negative effect on collagen II production,1
